From the supplement of paper PMC8372320

Experiment: photocatalytic hydrogen evolution rate (per 5 mg catalyst); higher = more photocatalytic H2 evolution; extreme values may be limits of the assay
Settings: catalyst mass (mg): 5; Pt cocatalyst (wt%): 3; sacrificial medium: triethylamine/methanol/water 1:1:1
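Also: aromatic molecules in triethylamine/methanol/water with Pt photoreduced in situ, irradiated 3 h under a 1 sun AM 1.5G solar simulator (350–1000 nm), H2 quantified by headspace gas chromatography; listed molecule itself used as the photocatalyst at 5 mg per vial.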

In order of falling “photocatalytic hydrogen evolution rate” value:
1. O=C1OC2(c3cc(Cl)c(O)cc3Oc3cc(O)c(Cl)cc32)c2ccccc21  25.2 µmol/h
2. O=C1OC2(c3ccccc31)c1cc(Br)c(O)c(Br)c1Oc1c2cc(Br)c(O)c1Br  23.9 µmol/h
3. CCCCCCCCCCCCCCCCCCn1c(=O)c2ccc3sc4ccccc4c4ccc(c1=O)c2c34  12.3 µmol/h
4. O=Cc1cc(Br)ccc1O  10.5 µmol/h
5. O=Cc1ccc2ccccc2c1  9.93 µmol/h
6. O=Cc1ccc(C(=O)O)cc1O  8.19 µmol/h
7. O=C(c1ccc(Br)cc1)c1ccc(Br)cc1  6.77 µmol/h
8. N#Cc1c(F)c(F)c(F)c(F)c1C#N  4.24 µmol/h
9. Cc1ccc(-c2ccc(C=O)cc2)cc1  3.39 µmol/h
10. O=C(c1ccccc1)c1ccccc1  3.25 µmol/h
11. COc1ccc(B(O)O)cc1C=O  2.76 µmol/h
12. O=C(O)c1ccc(-c2c3nc(c(-c4ccc(C(=O)O)cc4)c4ccc([nH]4)c(-c4ccc(C(=O)O)cc4)c4nc(c(-c5ccc(C(=O)O)cc5)c5ccc2[nH]5)C=C4)C=C3)cc1  2.56 µmol/h
13. Cn1c2ccccc2c2cc(C=O)ccc21  2.49 µmol/h
14. O=Cc1c2ccccc2cc2ccccc12  2.06 µmol/h
15. COc1ccc2c3c(cccc13)C(=O)N(C)C2=O  1.91 µmol/h
16. O=C(O)c1ccc(-c2ccc(-c3ccc(C(=O)O)cc3)cc2)cc1  1.84 µmol/h
17. O=Cc1ccc(Br)c(Cl)c1  1.45 µmol/h
18. Brc1ccc(Br)c2nsnc12  1.29 µmol/h
19. O=Cc1ccc(-c2ccc(C=O)cn2)nc1  0.927 µmol/h
20. Brc1ccc(N(c2ccccc2)c2ccc(Br)cc2)cc1  0.729 µmol/h
21. N#Cc1ccc(/C=C/c2ccc(/C=C/c3ccc(C#N)cc3)cc2)cc1  0.411 µmol/h
22. CC(=O)c1ccc(CCc2ccc(C(C)=O)cc2)cc1  0.387 µmol/h
23. N#Cc1cc(Br)cc(Br)c1O  0.31 µmol/h
24. Cc1cccc(N(c2ccc(C=O)cc2)c2cccc(C)c2)c1  0.245 µmol/h
25. N#Cc1cccc(C=O)c1  0.204 µmol/h
26. O=Cc1c(F)c(F)c(C=O)c(F)c1F  0.177 µmol/h
27. Brc1ccc(-c2ccc(-c3ccc(Br)s3)c3nsnc23)s1  0.174 µmol/h
28. O=Cc1ccc(N2CCCC2)cc1  0.173 µmol/h
29. c1ccc(-c2cccc(-c3ccccn3)n2)nc1  0.17 µmol/h
30. CC1(C)OB(c2ccc(-n3c4ccccc4c4ccccc43)cc2)OC1(C)C  0.135 µmol/h
31. Brc1cc(Br)c2[nH]c3c(Br)cc(Br)cc3c2c1  0.128 µmol/h
32. O=Cc1cc(Br)nc(Br)c1  0.107 µmol/h
33. O=C1OC(=O)c2ccc3c4c(ccc1c24)C(=O)OC3=O  0.0941 µmol/h
34. O=Cc1cc(C=O)cc(C=O)c1  0.0923 µmol/h
35. CC1(C)c2cc(Br)ccc2-c2ccc(Br)cc21  0.0799 µmol/h
36. CCc1ccc(C(=O)CC#N)cc1  0.0661 µmol/h
37. N#Cc1ccc(C#N)nc1  0.0617 µmol/h
38. N#Cc1c(F)cc(F)cc1F  0.0527 µmol/h
39. Brc1ccc2c(c1)C1(c3cc(Br)ccc3-2)c2cc(Br)ccc2-c2ccc(Br)cc21  0.0511 µmol/h
40. O=Cc1ccc(B(O)O)cc1  0.0401 µmol/h
41. COC(=O)c1cccc2cc3cccc(C(=O)OC)c3cc12  0.0378 µmol/h
42. N#Cc1cccc(-c2cccc(C#N)n2)n1  0.0301 µmol/h
43. COC(=O)c1cccc(C(=O)OC)n1  0.0266 µmol/h
44. Brc1ccc2ccccc2c1  0.0179 µmol/h
45. O=Cc1ccc(/C=C/c2ccccc2)cc1  0.017 µmol/h
46. CC1(C)c2ccccc2Oc2ccccc21  0.0132 µmol/h
47. Brc1c2ccccc2c(Br)c2ccccc12  0.0125 µmol/h
48. CC1(C)OB(c2cc(B3OC(C)(C)C(C)(C)O3)cc(B3OC(C)(C)C(C)(C)O3)c2)OC1(C)C  0.0124 µmol/h
49. c1ccc2c(c1)cc1ccc3cccc4ccc2c1c34  0.00851 µmol/h
50. O=Cc1ccc(O)cc1  0.00783 µmol/h
51. N#Cc1cc(C#N)cc(C#N)c1  0.00175 µmol/h
52. N#Cc1cc(N)cc(Cl)c1  0.000715 µmol/h
53. O=c1c(Br)c[nH]cc1Br  0.000384 µmol/h
54. CC1(C)CC2(CC(C)(C)c3cc(O)c(O)cc32)c2cc(O)c(O)cc21  0 µmol/h
55. N#Cc1ccc(Br)cc1  0 µmol/h
56. Fc1c(F)c(-c2c(F)c(F)c(Br)c(F)c2F)c(F)c(F)c1Br  0 µmol/h
57. c1ccc(-c2c(-c3ccccc3)c(-c3ccccc3)c(-c3ccccc3)c(-c3ccccc3)c2-c2ccccc2)cc1  0 µmol/h
58. CC1(C)OB(c2ccc3c(c2)[nH]c2ccccc23)OC1(C)C  0 µmol/h
59. Fc1ccc(-c2nc(-c3ccccc3)nc(-c3ccccc3)n2)cc1  0 µmol/h
60. O=C1c2cccc3cccc(c23)C(=O)N1O  0 µmol/h
61. O=C(O)c1cc(Br)c(C(=O)O)cc1Br  0 µmol/h
62. Cc1[nH]c(C)c(C=O)c1C=O  0 µmol/h
63. N#Cc1cccc(N)c1  0 µmol/h
64. O=C1C=C(O)C(=O)C=C1O  0 µmol/h
65. N#Cc1cc(F)c(F)c(F)c1F  0 µmol/h
66. OB(O)c1ccc(Br)nc1  0 µmol/h
67. N#Cc1cncc(Br)c1  0 µmol/h
68. N#Cc1cc(C#N)c(C#N)cc1C#N  0 µmol/h
69. CNc1ccc(C#N)cc1  0 µmol/h
70. Cc1ncc[nH]1  0 µmol/h
71. c1ccc(C(c2ccccc2)(c2ccccc2)c2ccccc2)cc1  0 µmol/h
72. O=C(O)c1c2ccccc2c(C(=O)O)c2ccccc12  0 µmol/h
73. CC1(C)OB(c2ccc(B3OC(C)(C)C(C)(C)O3)c3nsnc23)OC1(C)C  0 µmol/h
74. Fc1c(I)ccc(I)c1F  0 µmol/h
75. Cc1ccc(N(c2ccccc2)c2ccccc2)cc1  0 µmol/h
76. O=C(O)c1ccc(C#Cc2cc(C#Cc3ccc(C(=O)O)cc3)cc(C#Cc3ccc(C(=O)O)cc3)c2)cc1  0 µmol/h
77. c1ccc(-c2nc(-c3ccccc3)nc(-c3ccc(-c4ccc(-c5nc(-c6ccccc6)nc(-c6ccccc6)n5)cc4)cc3)n2)cc1  0 µmol/h
78. N#Cc1cc(F)cc(C#N)c1  0 µmol/h
79. O=C(O)C(c1ccccc1)(c1ccccc1)c1ccccc1  0 µmol/h
80. O=c1[nH]cc[nH]1  0 µmol/h
81. O=Cc1ccc(Br)cn1  0 µmol/h
82. c1ccc2nc3ccccc3nc2c1  0 µmol/h
83. Cc1[nH]c(C=O)cc1C#N  0 µmol/h
84. N#CCC(=O)c1ccccc1  0 µmol/h
85. c1ccc(-c2ccc(-c3ccc(-c4ccc(-c5ccc(-c6ccccc6)cc5)cc4)cc3)cc2)cc1  0 µmol/h
86. Nc1ccc(-c2c3nc(c(-c4ccc(N)cc4)c4ccc([nH]4)c(-c4ccc(N)cc4)c4nc(c(-c5ccc(N)cc5)c5ccc2[nH]5)C=C4)C=C3)cc1  0 µmol/h
87. C#Cc1ccc(C=O)cc1  0 µmol/h
88. Brc1cnc(Br)s1  0 µmol/h
89. O=[N+]([O-])c1cc(Br)ccc1Br  0 µmol/h
90. c1ccc2cc3ccccc3cc2c1  0 µmol/h
91. Oc1cc(Br)c(O)cc1Br  0 µmol/h
92. Brc1ccc(-c2ccc(-c3ccc(Br)s3)s2)s1  0 µmol/h
93. N#Cc1nc2c3nc(C#N)c(C#N)nc3c3nc(C#N)c(C#N)nc3c2nc1C#N  0 µmol/h
94. Nc1nc(N)nc(N)n1  0 µmol/h
95. N#Cc1ccc(-c2cccc(N)c2)cc1  0 µmol/h
96. N#Cc1ccc(Cc2ccc(C#N)cc2)cc1  0 µmol/h
97. Brc1cc2ccc3cc(Br)cc4ccc(c1)c2c34  0 µmol/h
98. C=Cc1ccccc1  0 µmol/h
99. Oc1ccc(O)cc1  0 µmol/h
100. BrCc1cc(Br)cc(Br)c1  0 µmol/h
101. Brc1cnc(Br)c2nsnc12  0 µmol/h
102. CCc1c(CBr)c(CC)c(CBr)c(CC)c1CBr  0 µmol/h
103. Cc1cc2c(cc1N)S(=O)(=O)c1cc(N)c(C)cc1-2  0 µmol/h
104. Oc1ccc2c(c1)Oc1cc(O)ccc1C21c2ccccc2-c2ccccc21  0 µmol/h
105. O=C1C(Cl)=C(Cl)C(=O)C(Cl)=C1Cl  0 µmol/h
106. O=C(c1ccc(O)cc1)c1ccc(O)cc1  0 µmol/h
107. O=Cc1cc(O)ccc1O  0 µmol/h
108. N#Cc1c(O)[nH]c(=O)c(C#N)c1-c1ccccc1  0 µmol/h
109. Cc1ccc(C#N)cc1N  0 µmol/h
110. O=C(O)c1ccc2cc(C(=O)O)ccc2c1  0 µmol/h
111. c1ccc(C(=C(c2ccccc2)c2ccccc2)c2ccccc2)cc1  0 µmol/h
112. Brc1cnc(Br)nc1  0 µmol/h
113. Brc1ccc2[nH]c3ccc(Br)cc3c2c1  0 µmol/h
114. Brc1cc(Br)c(Br)cc1Br  0 µmol/h
115. CC1(C)OB(c2ccc(-c3cccs3)s2)OC1(C)C  0 µmol/h
116. N#Cc1ccc(F)c(N)c1  0 µmol/h
117. Cn1cc(Br)nc(Br)c1=O  0 µmol/h
118. O=Cc1cc(O)c(O)c(O)c1  0 µmol/h
119. C=CS(=O)(=O)c1ccccc1  0 µmol/h
120. Ic1ccc(I)cc1  0 µmol/h
